For experiment [1], the target named is T1, HSP90a protein (Homo sapiens, UniProt P07900).
T1 construct: purchased BPS Bioscience 50298
As to the kind of experiment: HSP90α-binding fluorescent polarization (FP) assay, BODIPY-labeled RNK04010 probe. As to conditions: FP competition with RNK04010 (BODIPY-labeled), 5 nM, 300 min at 25° C. The gist of the method: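 Binding was scored by fluorescence polarization after adding N-terminal HSP90a to wells holding probe and compound, with compound tested from 20 μM to 5.2 nM. Probe-dependent times at 25° C were 120 min for FITC-geldanamycin and 300 min for RNK04010-BODIPY, both at 5 nM final.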

Experiment [2] relates to NCI-H358 human non-small cell lung cancer. Description: NCI-H358 CCK-8 proliferation assay. As to conditions: NCI-H358 cells, 72 hr. The format is cell-based. Put shortly:
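MIA PaCa-2 (2 copies KRAS(G12C)), NCI-H358 and NCI-H23 (1 copy KRAS(G12C) each) were exposed to compound in 3-fold serial dilutions from 20 μM to 1.02 nM. Viability was read as CCK-8 absorbance, and % inhibition was computed against DMSO-treated cells, with cell-free DMSO medium as blank.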
(Formazan colour is commonly taken as a measure of viable cells.)

Drawing on patent US20230391772A1, “METHODS AND COMPOSITIONS FOR TARGETED PROTEIN DEGRADATION” (Ranok Therapeutics (Hangzhou) Co. Ltd., priority 2020, published 2023), this text covers IC50 and EC50 for 15 compounds.

In experiment [1], `C=CC(=O)N1CCN(c2nc(NCCC(=O)NCc3ccc(-n4c(O)nnc4-c4cc(C(C)C)c(O)cc4O)cc3)nc3c2CCN(c2cccc4ccccc24)C3)C[C@H]1CC#N` [Compound 91, (R)-3-((4-(4-acryloyl-3-(cyanomethyl)piperazin-1-yl)-7-(naphthalen-1-yl)-5,6,7,8-tetrahydropyrido[3,4-d]pyrimidin-2-yl)amino)-N-(4-(3-(2,4-dihydroxy-5-isopropylphenyl)-5-hydroxy-4H-1,2,4-triazol-4-yl)benzyl)propanamide, trifluoroacetic acid] showed an IC50 above 1000 nM. Moreover, the EC50 in experiment [2] was above 1000 nM.
In experiment [1], `C=CC(=O)N1CCN(c2nc(NCCC(=O)N3CCN(c4ccc(-n5c(O)nnc5-c5cc(C(C)C)c(O)cc5O)cc4)CC3)nc3c2CCN(c2cccc4ccccc24)C3)C[C@H]1CC#N` [Compound 90, (R)-2-(1-acryloyl-4-(2-((3-(4-(4-(3-(2,4-dihydroxy-5-isopropylphenyl)-5-hydroxy-4H-1,2,4-triazol-4-yl)phenyl)piperazin-1-yl)-3-oxopropyl)amino)-7-(naphthalen-1-yl)-5,6,7,8-tetrahydropyrido[3,4-d]pyrimidin-4-yl)piperazin-2-yl)acetonitrile, trifluoroacetic acid] registered an IC50 of 100 to 1000 nM. For the same compound, the EC50 in experiment [2] was above 1000 nM.
Consider `C=CC(=O)N1CCN(c2nc(NCCC(=O)N3CCN(Cc4ccc5c(c4)CN(C(=O)c4cc(C(C)C)c(O)cc4O)C5)CC3)nc3c2CCN(c2cc(O)cc4ccccc24)C3)CC1` [Compound 58, 1-(4-(2-((3-(4-((2-(2,4-dihydroxy-5-isopropylbenzoyl)isoindolin-5-yl)methyl)piperazin-1-yl)-3-oxopropyl)amino)-7-(3-hydroxynaphthalen-1-yl)-5,6,7,8-tetrahydropyrido[3,4-d]pyrimidin-4-yl)piperazin-1-yl)prop-2-en-1-one], for which the IC50 in experiment [1] was 100 to 1000 nM. This compound gave an EC50 in experiment [2] above 1000 nM.
In the same order, the values of `CCC(=O)N1CCN(c2nc(NCCC(=O)NCc3ccc(-n4c(O)nnc4-c4cc(C)c(O)cc4O)cc3)nc3c2CCN(c2cc(O)cc4ccccc24)C3)CC1` [Compound 30, N-(4-(3-(2,4-dihydroxy-5-methylphenyl)-5-hydroxy-4H-1,2,4-triazol-4-yl)benzyl)-3-((7-(3-hydroxynaphthalen-1-yl)-4-(4-propionylpiperazin-1-yl)-5,6,7,8-tetrahydropyrido[3,4-d]pyrimidin-2-yl)amino)propanamide, trifluoroacetic acid] are above 1000 nM and above 1000 nM.
As to `CCC(=O)N1CCN(c2nc(NCCC(=O)NCCOc3ccc(-n4c(O)nnc4-c4cc(C(C)C)c(O)cc4O)cc3)nc3c2CCN(c2cc(O)cc4ccccc24)C3)CC1` [Compound 51, N-(2-(4-(3-(2,4-dihydroxy-5-isopropylphenyl)-5-hydroxy-4H-1,2,4-triazol-4-yl)phenoxy)ethyl)-3-((7-(3-hydroxynaphthalen-1-yl)-4-(4-propionylpiperazin-1-yl)-5,6,7,8-tetrahydropyrido[3,4-d]pyrimidin-2-yl)amino)propanamide, trifluoroacetic acid], the IC50 in experiment [1] was 100 to 1000 nM. In experiment [2], this compound registered an EC50 above 1000 nM.
On the same counts, the results for `C=CC(=O)N1CCN(c2nc(NCCC(=O)NCCOCCOCCOc3ccc(-n4c(O)nnc4-c4cc(C(C)C)c(O)cc4O)cc3)nc3c2CCN(c2cccc4cccc(Cl)c24)C3)C[C@@H]1CC#N` [Compound 93, (S)-3-((4-(4-acryloyl-3-(cyanomethyl)piperazin-1-yl)-7-(8-chloronaphthalen-1-yl)-5,6,7,8-tetrahydropyrido[3,4-d]pyrimidin-2-yl)amino)-N-(2-(2-(2-(4-(3-(2,4-dihydroxy-5-isopropylphenyl)-5-hydroxy-4H-1,2,4-triazol-4-yl)phenoxy)ethoxy)ethoxy)ethyl)propanamide, trifluoroacetic acid] are 100 to 1000 nM and above 1000 nM.
In the case of `CC(=O)N1CCN(c2nc(NCCC(=O)NCc3ccc(-n4c(O)nnc4-c4cc(C(C)C)c(O)cc4O)cc3F)nc3c2CCN(c2cc(O)cc4ccccc24)C3)CC1` [Compound 49, 3-((4-(4-acetylpiperazin-1-yl)-7-(3-hydroxynaphthalen-1-yl)-5,6,7,8-tetrahydropyrido[3,4-d]pyrimidin-2-yl)amino)-N-(4-(3-(2,4-dihydroxy-5-isopropylphenyl)-5-hydroxy-4H-1,2,4-triazol-4-yl)-2-fluorobenzyl)propanamide, trifluoroacetic acid], the IC50 in experiment [1] lay in the range of 100 to 1000 nM. The compound also yielded an EC50 in experiment [2] above 1000 nM.
In the same order, the values of `CC(=O)N1CCN(c2nc(NCCC(=O)NCc3ccc(-n4c(O)nnc4-c4cc(C)c(O)cc4O)cc3)nc3c2CCN(c2cc(O)cc4ccccc24)C3)CC1` [Compound 44, 3-((4-(4-acetylpiperazin-1-yl)-7-(3-hydroxynaphthalen-1-yl)-5,6,7,8-tetrahydropyrido[3,4-d]pyrimidin-2-yl)amino)-N-(4-(3-(2,4-dihydroxy-5-methylphenyl)-5-hydroxy-4H-1,2,4-triazol-4-yl)benzyl)propanamide, trifluoroacetic acid] are above 1000 nM and above 1000 nM.
In experiment [1], `CC(=O)N1CCN(c2nc(NCCC(=O)N3CCC(Cc4ccc(CN(C)Cc5ccc(-n6c(C(=O)NCC(F)(F)F)nnc6-c6cc(C)c(O)cc6O)cc5)cc4)CC3)nc3c2CCN(c2cc(O)cc4ccccc24)C3)CC1` [Compound 114, 4-(4-(((4-((1-(3-((4-(4-acetylpiperazin-1-yl)-7-(3-hydroxynaphthalen-1-yl)-5,6,7,8-tetrahydropyrido[3,4-d]pyrimidin-2-yl)amino)propanoyl)piperidin-4-yl)methyl)benzyl)(methyl)amino)methyl)phenyl)-5-(2,4-dihydroxy-5-methylphenyl)-N-(2,2,2-trifluoroethyl)-4H-1,2,4-triazole-3-carboxamide, trifluoroacetic acid] showed an IC50 above 1000 nM. This compound also had an EC50 in experiment [2] above 1000 nM.
The compound `C=CC(=O)N1CCN(c2nc(NCCC(=O)N3CCC(Cc4ccc(-n5c(O)nnc5-c5cc(C(C)C)c(O)cc5O)cc4)CC3)nc3c2CCN(c2cccc4ccccc24)C3)C[C@H]1CC#N` [Compound 84, (R)-2-(1-acryloyl-4-(2-((3-(4-(4-(3-(2,4-dihydroxy-5-isopropylphenyl)-5-hydroxy-4H-1,2,4-triazol-4-yl)benzyl)piperidin-1-yl)-3-oxopropyl)amino)-7-(naphthalen-1-yl)-5,6,7,8-tetrahydropyrido[3,4-d]pyrimidin-4-yl)piperazin-2-yl)acetonitrile, trifluoroacetic acid] displayed an IC50 in experiment [1] of 100 to 1000 nM. In experiment [2], this compound displayed an EC50 of 100 to 1000 nM.
`CCc1cc(C(=O)N2Cc3ccc(CN4CCN(C(=O)CCNc5nc6c(c(N7CCN(C(C)=O)CC7)n5)CCN(c5cc(O)cc7ccccc57)C6)CC4)cc3C2)c(O)cc1O` [Compound 67, 3-((4-(4-acetylpiperazin-1-yl)-7-(3-hydroxynaphthalen-1-yl)-5,6,7,8-tetrahydropyrido[3,4-d]pyrimidin-2-yl)amino)-1-(4-((2-(5-ethyl-2,4-dihydroxybenzoyl)isoindolin-5-yl)methyl)piperazin-1-yl)propan-1-one, trifluoroacetic acid] yielded an IC50 in experiment [1] of 100 to 1000 nM. Besides, the EC50 in experiment [2] was above 1000 nM.
`C=CC(=O)N1CCN(c2nc(NCCC(=O)N3CCN(Cc4ccc5c(c4F)CN(C(=O)c4ccc(O)cc4O)C5)CC3)nc3c2CCN(c2cc(O)cc4ccccc24)C3)CC1` [Compound 105, 1-(4-(2-((3-(4-((2-(2,4-dihydroxybenzoyl)-4-fluoroisoindolin-5-yl)methyl)piperazin-1-yl)-3-oxopropyl)amino)-7-(3-hydroxynaphthalen-1-yl)-5,6,7,8-tetrahydropyrido[3,4-d]pyrimidin-4-yl)piperazin-1-yl)prop-2-en-1-one, trifluoroacetic acid]: in experiment [1], the IC50 is above 1000 nM. The compound also had an EC50 in experiment [2] above 1000 nM.
On to `CCC(=O)N1CCN(c2nc(NCCC(=O)NCc3ccc(-n4c(O)nnc4-c4cc(CC)c(O)cc4O)cc3F)nc3c2CCN(c2cc(O)cc4ccccc24)C3)CC1` [Compound 34, N-(4-(3-(5-ethyl-2,4-dihydroxyphenyl)-5-hydroxy-4H-1,2,4-triazol-4-yl)-2-fluorobenzyl)-3-((7-(3-hydroxynaphthalen-1-yl)-4-(4-propionylpiperazin-1-yl)-5,6,7,8-tetrahydropyrido[3,4-d]pyrimidin-2-yl)amino)propanamide, trifluoroacetic acid], for which the IC50 in experiment [1] was above 1000 nM. Besides, in experiment [2], the EC50 was above 1000 nM.
In experiment [1], `C=CC(=O)N1CCN(c2nc(NCCC(=O)NCc3ccc(-n4c(O)nnc4-c4cc(CC)c(O)cc4O)cc3)nc3c2CCN(c2cc(O)cc4ccccc24)C3)CC1` [Compound 40, 3-((4-(4-acryloylpiperazin-1-yl)-7-(3-hydroxynaphthalen-1-yl)-5,6,7,8-tetrahydropyrido[3,4-d]pyrimidin-2-yl)amino)-N-(4-(3-(5-ethyl-2,4-dihydroxyphenyl)-5-hydroxy-4H-1,2,4-triazol-4-yl)benzyl)propanamide, trifluoroacetic acid] had a concentration for half-maximal inhibition (IC50) of 100 to 1000 nM. This compound gave a concentration for a half-maximal effect (EC50) in experiment [2] above 1000 nM.
Regarding `C=CC(=O)N1CCN(c2nc(NCCC(=O)NCc3ccc(-n4c(O)nnc4-c4cc(CCC)c(O)cc4O)cc3)nc3c2CCN(c2cccc4cccc(Cl)c24)C3)C[C@H]1CC#N` [Compound 89, (R)-3-((4-(4-acryloyl-3-(cyanomethyl)piperazin-1-yl)-7-(8-chloronaphthalen-1-yl)-5,6,7,8-tetrahydropyrido[3,4-d]pyrimidin-2-yl)amino)-N-(4-(3-(2,4-dihydroxy-5-propylphenyl)-5-hydroxy-4H-1,2,4-triazol-4-yl)benzyl)propenamide], the IC50 in experiment [1] is above 1000 nM. Also, the 50% effective concentration (EC50) in experiment [2] was above 1000 nM.

What is called IC50 is the midpoint of a concentration-inhibition curve. The EC50 is the concentration giving half of the maximal effect. Low values mean an effect from little substance, high ones a need for much substance.
